Experimental data from patent US20240417407A1, “FUROINDAZOLE DERIVATIVES AS GPR84 ANTAGONISTS” (Bayer Aktiengesellschaft, priority 2021, published 2024).
pIC50: −log10 of the molar value.

Target: T1, human GPR84 receptor (Homo sapiens, UniProt Q9NQS5)
T1 construct: frozen aliquots prepared by acCELLerate; host or cells: CHO-K1
Assay: cAMP HTRF assay for identification of cellular GPR84 antagonists
Format: cell-based
Settings: CHO-K1 cells stably expressing human GPR84; Forskolin plus agonist 6-OAU; cAMP HTRF readout; average or median values
From the text: cAMP HTRF® Assay for Identification of Cellular GPR84 Antagonists
By using a Homogenous Time-Resolved Fluorescence (HTRF®) based assay (#62AM5PEJ, Cisbio, Condolet, France) the inhibition of the Gi-coupled GPR84 receptor can be detected. CHO-K1 cells stably expressing human GPR84 receptor (purchased from DiscoveRx, now Eurofins) were used and treated with Forskolin (F6886, Sigma, Germany) to stimulate membrane adenylyl cyclases and thereby unspecific cAMP formation. Activation of the Gi-coupled GPR84 by a natural or small molecule agonist (e.g. 6-n-octyl aminouracile, inhouse) results in inhibition of cellular cAMP formation which can be released again by antagonists to this receptor. Detection and quantification of cellular cAMP levels in this HTRF assay is achieved by interaction between a fluorescent cAMP tracer (cAMP-d2) and an Eu-cryptate labelled anti-cAMP antibody. Following excitation at 337 nm this pairing allows for the generation of a fluorescence resonance energy transfer (FRET) between the partners and results in FRET induced emissions at 665 nm and 620 nm, the latter representing background signal by Eu-cryptate labelled anti-cAMP antibody. Maximal signal is obtained in the absence of any cellular cAMP (no competition for the binding of the tracer to the antibody). Given the combination of the Gi coupling properties of GPR84 and the competitive nature of the detection system agonist treatment should result in an increase in the HTRF signal due to lowered cAMP levels. Any signal decrease in the presence of Forskolin, agonist and compound is indicative of antagonist mediated abrogation of GPR84 signalling.
For the assay, frozen aliquots of CHO-K1 cells expressing hGPR84 (prepared by acCELLerate, Hamburg, Germany) were thawed and a cell suspension (1.67E+06 cells/mL) in assay media (Ham's F12 Nutrient Mix, Thermo Fisher Scientific, Waltham, USA; 5% fetal calf serum, Biomol, Hamburg, Germany) containing cAMP-d2 (dilution 1:20, supplied with the kit #62AM5PEJ, Cisbio, Condolet, France) was prepared. After recovery of cells for 20 minutes at 37° C., 3 μL/well cell suspension including cAMP-d2 were added to a pre-dispensed assay plate (Greiner Bio-One, Kremsmuenster, Austria) containing 50 nl/well test compound in 100% DMSO or 100% DMSO as control. This was followed by a 30 minutes incubation step at room temperature. […] The reaction was stopped by addition of 3 μL/well lysis buffer containing cAMP Eu-Cryptate antibody (dilution 1:20) (both supplied with the kit #62AM5PEJ, Cisbio, Condolet, France). To enable complete lysis, plates were incubated for 60 minutes at room temperature before measurement in an HTRF reader, e.g. a PHERAstar (BMG Labtech, Ortenberg, Germany).
From the fluorescence emissions at 665 nm (FRET) and at 620 nm (background signal of Eu-cryptate) the ratio (emission at 665 nm divided by emission at 620 nm×10000) was calculated and the data were normalized (reaction without test compound, only 100% DMSO=0% inhibition; all other assay components except agonist=100% inhibition). For dose response testing on the same microtiter plate, compounds were tested at 11 different concentrations in the range of 20 μM to 0.07 nM (20 μM, 5.7 μM, 1.6 μM, 0.47 μM, 0.13 μM, 38 nM, 11 nM, 3.1 nM, 0.89 nM, 0.25 and 0.07 nM; dilution series prepared before the assay at the level of the 100-fold conc. stock solutions by serial 1:3.5 dilutions in 100% DMSO) in duplicate values for each concentration. IC50 values were calculated by 4-parameter fitting using a commercial software package (Genedata Screener, Basel, Switzerland).
Examples were tested in selected biological assays one or more times. […]

T1 sequence (Q9NQS5 whole entry): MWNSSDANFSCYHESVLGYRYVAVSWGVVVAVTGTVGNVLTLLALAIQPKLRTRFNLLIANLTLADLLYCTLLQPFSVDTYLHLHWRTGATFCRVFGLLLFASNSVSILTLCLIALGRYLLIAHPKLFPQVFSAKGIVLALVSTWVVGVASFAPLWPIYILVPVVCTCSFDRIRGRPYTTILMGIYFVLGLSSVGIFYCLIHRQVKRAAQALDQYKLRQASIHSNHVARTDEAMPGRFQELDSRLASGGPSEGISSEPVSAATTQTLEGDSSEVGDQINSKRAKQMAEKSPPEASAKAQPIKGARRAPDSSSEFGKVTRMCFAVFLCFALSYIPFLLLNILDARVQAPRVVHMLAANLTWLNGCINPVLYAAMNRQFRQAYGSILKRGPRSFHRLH

| Compound | pIC50 |
| --- | --- |
| Cc1cc2oc(C(=O)NC[C@@H]3COCCO3)c(C(F)(F)F)c2c2nn(C[C@H]3COCCO3)cc12 [Example 39, N-{[(2R)-1,4-dioxan-2-yl]methyl}-2-{[(2S)-1,4-dioxan-2-yl]methyl}-4-methyl-8-(trifluoromethyl)-2H-furo[2,3-g]indazole-7-carboxamide] | 7.49 |
| O=C(NCCn1ccnc1)c1oc2ccc3cn(C[C@H]4COCCO4)nc3c2c1C(F)(F)F [Example 25] | 4.89 |
| Cn1cnc(CNC(=O)c2oc3ccc4cn(C[C@H]5COCCO5)nc4c3c2C(F)(F)F)c1 [Example 11] | 7.12 |
| Cc1ccc(CNC(=O)c2oc3ccc4cn(C[C@H]5COCCO5)nc4c3c2C(F)(F)F)nn1 [Example 21] | 6.46 |
| Cc1ccc(Cn2cc3c(C)cc4oc(C(=O)NC[C@@H]5CCCO5)c(C(F)(F)F)c4c3n2)nc1 [Example 35] | 8.40 |
| Cc1cn(CCNC(=O)c2oc3ccc4cn(C[C@H]5COCCO5)nc4c3c2C(F)(F)F)nn1 [Example 26] | 4.85 |
| CC1CCC(CNC(=O)c2oc3ccc4cn(C[C@H]5COCCO5)nc4c3c2C(F)(F)F)O1 (mixture of isomers) [Example 7, 2-{[(2S)-1,4-dioxan-2-yl]methyl}-N-{[(2RS,5RS)-5-methyltetrahydrofuran-2-yl]methyl}-8-(trifluoromethyl)-2H-furo[2,3-g]indazole-7-carboxamide] | 7.89 |
